# Test results taken from US20220370450A1, “CONTROLLED-RELEASE COMPOSITION FOR ORAL ADMINISTRATION COMPRISING COMPLEX OF ALPHA ADRENERGIC BLOCKER COMPOUND AND CLAY MINERAL” (Korea Institute Of Geoscience And Mineral Resources, priority 2019, published 2022).
# Experiments:
# in vivo = settings: Sprague-Dawley, rat, po, 1 mg/kg
# Experimental: (§1) The breeding conditions of the experimental animals were as follows.
# (§2) After the femoral region of the fixed rat was shaved, the blood-gathering was prepared by injecting a cannula. A drug-bentonite complex dispersion solution as an experimental group and a drug aqueous solution as a control group were administered using an oral zonde and then a certain amount of plasma was collected through the cannula for each predetermined time and the plasma drug concentration was measured.
# (§3) The drug concentrations in the plasma samples were analyzed using a mass spectrometer.
# [1] = rat, in vivo, po, 1 mg/kg
# Experimental: as §1, §2, §3
# [2] = Drug release experiment using a semi-permeable membrane; assay type: physicochemical; settings: for elution rate: in both pH 1.2 and 7.8; for time within which most of the drug was released / drug released within initial 1 hour: semi-permeable membrane bag, cut-off 12,000 to 14,000 Da, 37° C.; for drug released within initial 1 hour: eluate pH 1.2 or pH 7.8; for release rate (membrane release amount of drug per unit time) of the drug solution relative to the drug-bentonite complex dispersion solution: semi-permeable membrane cut-off 12,000 to 14,000 Da
# Experimental: The amount of the drug-bentonite complex was adjusted so that the drug final concentration inside the elution system became 1 μg/ml. At this time, as the eluate, a 0.1 N hydrochloric acid solution of pH 1.2 and a phosphate buffer of pH 7.8 were used and the elution was performed while maintaining 37° C. While the eluate outside the semi-permeable membrane was partially taken by time and the same amount of eluate was compensated, the experiment was conducted, and the drug concentration of the taken sample was analyzed using high performance liquid chromatography.
smiles,measurement,setting,value
"COc1cc2nc(N3CCN(C(=O)C4COc5ccccc5O4)CC3)nc(N)c2cc1OC (centres unmarked) [Doxazosin, doxazosin]",AUC(0-t),in vivo,186 ± 54.7 ng·h/mL
same,Cmax,in vivo,67.3 ± 14.2 ng/mL
same,Tmax,in vivo,45 ± 15 min
same,bioavailability,in vivo,100%
same,time within which the plasma concentration reached the maximum plasma concentration (Cmax),[1],30 to 60 min
same,release amount of the drug solution relative to the complex dispersion solution,[2]; after 4 hours of the test,two times larger
same,elution rate,[2],fast elution rate
same,time within which most of the drug was released,[2],≤ 4 h
same,drug released within initial 1 hour,[2],≥ 50%
same,release rate (membrane release amount of drug per unit time) of the drug solution relative to the drug-bentonite complex dispersion solution,[2],two times larger
"COc1cc2nc(N3CCN(C(=O)c4ccco4)CC3)nc(N)c2cc1OC [Prazosin, prazosin]",AUC(0-t),in vivo,247 ± 45.1 ng·h/mL
same,Cmax,in vivo,129 ± 36.2 ng/mL
same,Tmax,in vivo,22.8 ± 7.8 min
same,bioavailability,in vivo,100%
same,release amount of the drug solution relative to the complex dispersion solution,"[2]; after 2 hours of the test, pH 1.2",two times larger
same,release amount of the drug solution relative to the complex dispersion solution,"[2]; after 2 hours of the test, pH 7.8",significantly larger
same,elution rate,[2],fast elution rate
same,time within which most of the drug was released,[2],≤ 4 h
same,drug released within initial 1 hour,[2],≥ 70%
same,release rate (membrane release amount of drug per unit time) of the drug solution relative to the drug-bentonite complex dispersion solution,[2],larger
